Patent publication US12459922B2 (Gilead Sciences, Inc., priority 2022, dated 2025)

The compounds below were run on endogenous cellular STAT1 (phosphorylated at Tyr701) in NCI-H1373 cells (assay: Phospho-STAT1 (Tyr701) LANCE Ultra TR-FRET Detection Assay). Conditions: Homo sapiens, NCI-H1373, 48 h, phospho-STAT1 (Tyr701) induction, read-out: NH1373 pSTAT1 EC50.
Format: cell-based

Row | EC50 | SMILES
1 | 6.82 nM | O=c1[nH]ncc(N[C@H]2CCC[C@@H]2CCn2cnc3cc(-c4ncc(Cl)cn4)c(F)cc3c2=O)c1C(F)(F)F [Example 448, 7-(5-chloropyrimidin-2-yl)-6-fluoro-3-(2-((1R,2S)-2-((6-oxo-5-(trifluoromethyl)-1,6-dihydropyridazin-4-yl)amino)cyclopentyl)ethyl)quinazolin-4(3H)-one]
2 | 6.42 nM | Nc1nc(-c2cc3ncn(CC[C@H]4CCC[C@@H]4Nc4cn[nH]c(=O)c4C(F)(F)F)c(=O)c3cc2F)ncc1Cl [Example 449, 7-(4-amino-5-chloropyrimidin-2-yl)-6-fluoro-3-(2-((1R,2S)-2-((6-oxo-5-(trifluoromethyl)-1,6-dihydropyridazin-4-yl)amino)cyclopentyl)ethyl)quinazolin-4(3H)-one]
3 | 11.4 nM | O=c1[nH]ncc(N[C@H]2CCCC[C@@H]2CCn2ccc3cc(-c4ncc(C(F)(F)F)cn4)c(F)cc3c2=O)c1C(F)(F)F [Example 450, 7-fluoro-2-[2-[(1R,2S)-2-[[6-oxo-5-(trifluoromethyl)-1H-pyridazin-4-yl]amino]cyclohexyl]ethyl]-6-[5-(trifluoromethyl)pyrimidin-2-yl]isoquinolin-1-one]
4 | 4.76 nM | Nc1nc(-c2cc3ccn(CC[C@H]4CCCC[C@@H]4Nc4cn[nH]c(=O)c4C(F)(F)F)c(=O)c3cc2F)ncc1C(F)(F)F [Example 451, 6-[4-amino-5-(trifluoromethyl)pyrimidin-2-yl]-7-fluoro-2-[2-[(1R,2S)-2-[[6-oxo-5-(trifluoromethyl)-1H-pyridazin-4-yl]amino]cyclohexyl]ethyl]isoquinolin-1-one]
5 | 35.9 nM | O=c1[nH]ncc(N[C@H]2CC[C@@H]2CCn2cnc3cc(-c4ncc(C(F)(F)F)cn4)c(F)cc3c2=O)c1C(F)(F)F [Example 452, 6-fluoro-3-[2-[(1R,2S)-2-[[6-oxo-5-(trifluoromethyl)-1H-pyridazin-4-yl]amino]cyclobutyl]ethyl]-7-[5-(trifluoromethyl)pyrimidin-2-yl]quinazolin-4-one]
6 | 215 nM | O=c1[nH]ncc(N[C@H](CCCn2ccc3cc(-c4ncc(C(F)(F)F)cn4)c(F)cc3c2=O)CC(F)(F)F)c1C(F)(F)F [Example 453, (R)-7-fluoro-2-(6,6,6-trifluoro-4-((6-oxo-5-(trifluoromethyl)-1,6-dihydropyridazin-4-yl)amino)hexyl)-6-(5-(trifluoromethyl)pyrimidin-2-yl)isoquinolin-1(2H)-one]
7 | 7.48 nM | O=c1[nH]ncc(O[C@H]2CCC[C@@H](Cn3ccc4cc(-c5ncc(C(F)(F)F)cn5)c(F)cc4c3=O)C2)c1C(F)(F)F [Example 454, 7-fluoro-2-(((1R,3S)-3-((6-oxo-5-(trifluoromethyl)-1,6-dihydropyridazin-4-yl)oxy)cyclohexyl)methyl)-6-(5-(trifluoromethyl)pyrimidin-2-yl)isoquinolin-1(2H)-one]
8 | 38.2 nM | Nc1nc(-c2cc3ccn(C[C@@H]4CCC[C@H](Oc5cn[nH]c(=O)c5C(F)(F)F)C4)c(=O)c3cc2F)ncc1C(F)(F)F [Example 455, 6-(4-amino-5-(trifluoromethyl)pyrimidin-2-yl)-7-fluoro-2-(((1R,3S)-3-((6-oxo-5-(trifluoromethyl)-1,6-dihydropyridazin-4-yl)oxy)cyclohexyl)methyl)isoquinolin-1(2H)-one]
9 | 48 nM | O=c1[nH]ncc(O[C@H]2CCC[C@@H](Cn3ccc4cc(-c5ncc(C(F)F)cn5)c(F)cc4c3=O)C2)c1C(F)(F)F [Example 456, 6-(5-(difluoromethyl)pyrimidin-2-yl)-7-fluoro-2-(((1R,3S)-3-((6-oxo-5-(trifluoromethyl)-1,6-dihydropyridazin-4-yl)oxy)cyclohexyl)methyl)isoquinolin-1(2H)-one]
10 | 10.6 nM | O=c1[nH]ncc(O[C@H]2CCC[C@@H](Cn3cnc4cc(-c5ncc(C(F)F)cn5)c(F)cc4c3=O)C2)c1C(F)(F)F [Example 457, 7-(5-(difluoromethyl)pyrimidin-2-yl)-6-fluoro-3-(((1R,3S)-3-((6-oxo-5-(trifluoromethyl)-1,6-dihydropyridazin-4-yl)oxy)cyclohexyl)methyl)quinazolin-4(3H)-one]
11 | 2940 nM | O=c1[nH]ncc(N[C@H]2CCC[C@@H](Cn3cnc4cc(-c5ncc(C(F)(F)F)c(Br)n5)c(F)cc4c3=O)C2)c1C(F)(F)F [Example 458, 7-(4-bromo-5-(trifluoromethyl)pyrimidin-2-yl)-6-fluoro-3-(((1R,3S)-3-((6-oxo-5-(trifluoromethyl)-1,6-dihydropyridazin-4-yl)amino)cyclohexyl)methyl)quinazolin-4(3H)-one]
12 | 12.2 nM | O=c1[nH]ncc(N[C@H]2CCC[C@@H](Cn3cc(Br)c4cc(-c5ncc(C(F)(F)F)cn5)c(F)cc4c3=O)C2)c1C(F)(F)F [Example 459, 4-bromo-7-fluoro-2-(((1R,3S)-3-((6-oxo-5-(trifluoromethyl)-1,6-dihydropyridazin-4-yl)amino)cyclohexyl)methyl)-6-(5-(trifluoromethyl)pyrimidin-2-yl)isoquinolin-1(2H)-one]
13 | 69.9 nM | Nc1nc(-c2cc3ncn(CCC[C@@H](Nc4cn[nH]c(=O)c4C(F)(F)F)C4CC4)c(=O)c3cc2F)cnc1C(F)(F)F [Example 460, (R)-7-(6-amino-5-(trifluoromethyl)pyrazin-2-yl)-3-(4-cyclopropyl-4-((6-oxo-5-(trifluoromethyl)-1,6-dihydropyridazin-4-yl)amino)butyl)-6-fluoroquinazolin-4(3H)-one]
14 | 15.1 nM | Nc1nc(-c2cc3ncn(CCC[C@@H](Nc4cn[nH]c(=O)c4C(F)(F)F)C4CC4)c(=O)c3cc2F)ncc1Cl [Example 461, (R)-7-(4-amino-5-chloropyrimidin-2-yl)-3-(4-cyclopropyl-4-((6-oxo-5-(trifluoromethyl)-1,6-dihydropyridazin-4-yl)amino)butyl)-6-fluoroquinazolin-4(3H)-one]
15 | 27.6 nM | Nc1nc(-c2cc3ncn(CCC[C@@H](Nc4cn[nH]c(=O)c4C(F)(F)F)C4CC4)c(=O)c3cc2F)ncc1C(F)F [Example 462, (R)-7-(4-amino-5-(difluoromethyl)pyrimidin-2-yl)-3-(4-cyclopropyl-4-((6-oxo-5-(trifluoromethyl)-1,6-dihydropyridazin-4-yl)amino)butyl)-6-fluoroquinazolin-4(3H)-one]
16 | 9.47 nM | O=c1[nH]ncc(N[C@H]2CCC[C@@H]2CCn2cnc3cc(-c4ncc(C(F)(F)F)cn4)c(F)cc3c2=O)c1C(F)(F)F [Example 463, 6-fluoro-3-(2-((1R,2S)-2-((6-oxo-5-(trifluoromethyl)-1,6-dihydropyridazin-4-yl)amino)cyclopentyl)ethyl)-7-(5-(trifluoromethyl)pyrimidin-2-yl)quinazolin-4(3H)-one]
17 | 3.62 nM | Nc1nc(-c2cc3ncn(CC[C@H]4CCC[C@@H]4Nc4cn[nH]c(=O)c4C(F)(F)F)c(=O)c3cc2F)ncc1C(F)(F)F [Example 464, 7-(4-amino-5-(trifluoromethyl)pyrimidin-2-yl)-6-fluoro-3-(2-((1R,2S)-2-((6-oxo-5-(trifluoromethyl)-1,6-dihydropyridazin-4-yl)amino)cvclopentyl)ethyl)quinazolin-4(3H)-one]
18 | 18 nM | Nc1nc(-c2cc3ncn(CC[C@H]4CCC[C@@H]4Nc4cn[nH]c(=O)c4C(F)(F)F)c(=O)c3cc2F)cnc1C(F)(F)F [Example 465, 7-(6-amino-5-(trifluoromethyl)pyrazin-2-yl)-6-fluoro-3-(2-((1R,2S)-2-((6-oxo-5-(trifluoromethyl)-1,6-dihydropyridazin-4-yl)amino)cyclopentyl)ethyl)quinazolin-4(3H)-one]
19 | 6.52 nM | O=c1[nH]ncc(N[C@H](CCCn2ccc3cc(-c4ncc(C(F)(F)F)cn4)c(F)cc3c2=O)CCOC(F)F)c1C(F)(F)F [Example 466, 2-[(4R)-6-(difluoromethoxy)-4-[[6-oxo-5-(trifluoromethyl)-1H-pyridazin-4-yl]amino]hexyl]-7-fluoro-6-[5-(trifluoromethyl)pyrimidin-2-yl]isoquinolin-1-one]
20 | 4.13 nM | Nc1nc(-c2cc3ccn(CCC[C@H](CCOC(F)F)Nc4cn[nH]c(=O)c4C(F)(F)F)c(=O)c3cc2F)ncc1C(F)(F)F [Example 467, 6-[4-amino-5-(trifluoromethyl)pyrimidin-2-yl]-2-[(4R)-6-(difluoromethoxy)-4-[[6-oxo-5-(trifluoromethyl)-1H-pyridazin-4-yl]amino]hexyl]-7-fluoro-isoquinolin-1-one]
21 | 42.5 nM | O=c1[nH]ncc(N[C@H](CCCn2cnc3cc(-c4ncc(C(F)F)cn4)c(F)cc3c2=O)C2CC2)c1C(F)(F)F [Example 468, 3-[(4R)-4-cyclopropyl-4-[[6-oxo-5-(trifluoromethyl)-1H-pyridazin-4-yl]amino]butyl]-7-[5-(difluoromethyl)pyrimidin-2-yl]-6-fluoro-quinazolin-4-one]
22 | 14.5 nM | Nc1nc(-c2cc3ncn(CCC[C@@H](Nc4cn[nH]c(=O)c4C(F)(F)F)C4CC4)c(=O)c3cc2F)ncc1C(F)(F)F [Example 469, 7-[4-amino-5-(trifluoromethyl)pyrimidin-2-yl]-3-[(4R)-4-cyclopropyl-4-[[6-oxo-5-(trifluoromethyl)-1H-pyridazin-4-yl]amino]butyl]-6-fluoro-quinazolin-4-one]
23 | 39.3 nM | O=c1[nH]ncc(N[C@H](CCCn2cnc3cc(-c4ncc(Cl)cn4)c(F)cc3c2=O)C2CC2)c1C(F)(F)F [Example 470, 7-(5-chloropyrimidin-2-yl)-3-[(4R)-4-cyclopropyl-4-[[6-oxo-5-(trifluoromethyl)-1H-pyridazin-4-yl]amino]butyl]-6-fluoro-quinazolin-4-one]
24 | 23.2 nM | O=c1[nH]ncc(N[C@H](CCCn2cnc3cc(-c4ncc(C(F)(F)F)cn4)c(F)cc3c2=O)C2CC2)c1C(F)(F)F [Example 471, 3-[(4R)-4-cyclopropyl-4-[[6-oxo-5-(trifluoromethyl)-1H-pyridazin-4-yl]amino]butyl]-6-fluoro-7-[5-(trifluoromethyl)pyrimidin-2-yl]quinazolin-4-one]
25 | 51.6 nM | Nc1nc(-c2cc3ncn(CCC[C@@H](Nc4cn[nH]c(=O)c4C(F)(F)F)C4CC4)c(=O)c3cc2F)ncc1OC(F)F [Example 472, 7-[4-amino-5-(difluoromethoxy)pyrimidin-2-yl]-3-[(4R)-4-cyclopropyl-4-[[6-oxo-5-(trifluoromethyl)-1H-pyridazin-4-yl]amino]butyl]-6-fluoro-quinazolin-4-one]
